Results published in paper PMC8004929, “Whole-Body Pharmacokinetics and Physiologically Based Pharmacokinetic Model for Monomethyl Auristatin E (MMAE)” (Journal of Clinical Medicine, 2021).
Square brackets hold non-standard residues; d marks the D form. Peptide text beside a SMILES is read from it. * marks the point of attachment. Dolaproine = CO[C@@H]([C@@H]1CCCN1)[C@@H](C)C(=O)O; Dil = CC[C@H](C)[C@H](NC)[C@@H](CC(=O)O)OC; X1 = C[C@@H](N*)[C@@H](O)c1ccccc1; NMeV = CN[C@H](C(=O)O)C(C)C

Columns and labels:
CYP3A = conditions: in vivo and in vitro studies; cited from earlier work
Text: The PBPK model of MMAE presented here can further be used to assess drug–drug interactions of MMAE containing ADCs. In vivo and in vitro studies indicate that MMAE is a substrate of CYP3A and P-glycoprotein [34]. As such, the polymorphism of CYP3A and P-glycoprotein may affect the PK of MMAE, and consequently the efficacy and toxicity of MMAE-conjugated ADCs. As such, the MMAE PBPK model can serve as a tool to explore drug interactions of ADCs.

[1] = Derivation of in vivo CLint (in vitro-in vivo extrapolation; NCA with well-stirred model); conditions: mice, 0.1 mg/kg i.v.
[2] = Whole-body biodistribution / PK study of MMAE in tumor-bearing mice (LC-MS/MS, NCA); assay type: in vivo; conditions: 0.1 mg/kg i.v.; for AUC0−t: observed conc. by LC-MS/MS, 3 mice per time point; for KPadj: KP adjusted for percentage of cellular volume in total tissue volume
Text: Male athymic nude mice were purchased at the age of 6 weeks from Charles River (Wilmington, NC, USA). After acclimation to the new conditions for two weeks, mice were subcutaneously injected with MDA-MB-468 (about 10 million tumor cells) into the right dorsal flank. The in vivo study adhered to the Principles of Laboratory Animal Care (National Institutes of Health publication 85–23, revised 1985) and were approved by the University at Buffalo Institutional Animal Care and Use Committee (IACUC# PHC29035Y).
A total of 18 mice (6 weeks old, 26–35 g) bearing MDA-MB-468 xenografts were used for the biodistribution studies. Then, 0.1 mg/kg MMAE was injected into the mice via the penile vein, and terminal samples were collected at 5 min and 1, 6, 12, 24, and 168 h. Three mice were sacrificed at each time point. Whole blood, tissue, and tumor were harvested. The collected tissues included the heart, liver, lung, spleen, pancreas, kidney, skin, bone, muscle, fat, and brain. Whole blood samples in ethylenediaminetetraacetic acid (EDTA) pre-coated tubes were centrifuged at 2000× g for 20 min at 4 °C, and plasma was collected and stored at −20 °C for further analysis. Harvested tissue samples were blotted dry and immediately frozen in liquid nitrogen and stored at −80 °C until homogenization.
A detailed tissue homogenization procedure has been reported previously. Briefly, different volumes of RIPA buffer containing protease inhibitor were added into the weighted tissue samples to obtain different dilution factors in each tissue. The dilution factor was 5 for heart, liver, lung, spleen, pancreas, kidney, skin, and fat, 8 for bone and muscle, and 4 for brain samples. Tissue samples were homogenized using a BeadBug™ microtube homogenizer (Benchmark, USA) at the maximum speed for 15 s followed by a 30-s ice cool down, and repeated three times. Blood samples without dilution were directly homogenized for 30 s at maximum speed and were treated the same way as tissue samples.
Then, 500 µL acetonitrile containing 0.1% formic acid was added into 100 µL of plasma, tissue, or tumor homogenate samples and then spiked with 20 µL of IS solution (D8-MMAE 150 ng/mL). After vortexing and centrifugation at 15,000× g for 15 min at 4 °C, the supernatants were transferred to glass tubes and dried under nitrogen flow at 32 °C. The dried residuals were reconstituted with 60 µL of acetonitrile/water (95:5 v/v) containing 0.1% formic acid, gently vortexed, and immediately transferred into HPLC vials.
Standards and quality control samples (QCs) were prepared for plasma and each tissue matrix. Then, 250 µL of the control plasma or matrices were spiked with 20 µL of IS solution (D8-MMAE 150 ng/mL) and 10 µL of MMAE stock solution diluted with acetonitrile, and then, 500 µL of acetonitrile containing 0.1% formic acid was added. The final concentrations of standard were 0.5, 1, 10, 100, 200, and 500 ng/mL. QCs were prepared similarly for the final concentrations of […].
A Waters Acquity LC-MS/MS system was used with electrospray interphase and triple quadrupole mass spectrometer. An ACQUITY UPLC BEH Amide column (Waters, Milford, MA, USA) was used with 5 mM ammonium formate and 0.1% formic acid as the aqueous phase, and 0.1% formic acid and 1 mM ammonium formate were used as the organic phase. The gradient flow rate was 0.25 mL/min. The lower limit of quantification of MMAE was […] (or ng/g) for plasma, blood, tissues, and tumor.
Noncompartmental analysis (NCA) was conducted for plasma PK data. AUC computed from time 0 to the last observed concentration time (AUC0−t) was calculated using the linear/log trapezoidal method in WinNonlin (version 8.1, Pharsight, St. Louis, MO, USA). Blood to plasma ratios ( KP,BC ) and tissue partition coefficients ( KP,i ) were calculated using Equation (1), using AUC0−t values derived from the observed data. (1) KP,BC or KP,i=AUCi,0−t/AUCp,0−t, […]

[3] = NCA of plasma, tumor-bearing mice

## CC[C@H](C)[C@@H]([C@@H](CC(=O)N1CCC[C@H]1[C@H](OC)[C@@H](C)C(=O)N[C@H](C)[C@@H](O)c1ccccc1)OC)N(C)C(=O)[C@@H](NC(=O)[C@@H](NC)C(C)C)C(C)C [MMAE, Monomethyl auristatin E] (H-[NMeV]V[Dil][Dolaproine]-X1)
CYP3A
  substrate of CYP3A: substrate
[1]
  CLint derived from NCA analysis of in vivo PK data: 150 mL/h
[2]; MDA-MB-468 tumor AUC0−t / plasma AUC0−t, tumor-bearing mice
  KP (tissue-to-plasma partition coefficient): 8.21
[2]; MDA-MB-468 tumor, tumor-bearing mice
  AUC0−t: 0.619 µM·h
[2]; [3]
  half-life: 2.5 h
  systemic CL: 60 mL/h
  volume of distribution (Vss): 42 mL
[2]; NCA, tumor-bearing mice
  plasma AUC from 0 to 12 h: 54.3 ng·h/mL
  plasma AUC from 0 to infinite: 54.5 ng·h/mL
[2]; after 5 min, tumor-bearing mice
  injected dose remaining in plasma: 0.3%
[2]; at 6 h, tumor-bearing mice
  blood-to plasma ratio: ≈ 20
[2]; blood (blood cell) AUC0−t / plasma AUC0−t, tumor-bearing mice
  KP (partition coefficient): 5.46
[2]; blood, tumor-bearing mice
  KPadj: 5.46
[2]; blood, MDA-MB-468 tumor-bearing mice
  AUC0−t: 0.414 µM·h
[2]; bone, tumor-bearing mice
  KPadj: 1.89
[2]; bone, MDA-MB-468 tumor-bearing mice
  AUC0−t: 0.11 µM·h
[2]; brain AUC0−t / plasma AUC0−t, tumor-bearing mice
  KP (tissue-to-plasma partition coefficient): 0.411
[2]; brain, tumor-bearing mice
  KPadj: 0.530
[2]; brain, MDA-MB-468 tumor-bearing mice
  AUC0−t: 0.0312 µM·h
[2]; early time-points (<30 min), tumor-bearing mice
  blood-to plasma ratio: about 6
[2]; fat AUC0−t / plasma AUC0−t, tumor-bearing mice
  KP (tissue-to-plasma partition coefficient): 2.43
[2]; fat, tumor-bearing mice
  KPadj: 3.01
[2]; fat, MDA-MB-468 tumor-bearing mice
  AUC0−t: 0.184 µM·h
[2]; from 1 to 168 h, MDA-MB-468 tumor, mice
  decrease of MMAE concentration in the tumor: 50%
[2]; heart AUC0−t / plasma AUC0−t, tumor-bearing mice
  KP (tissue-to-plasma partition coefficient): 17.9
[2]; heart, tumor-bearing mice
  KPadj: 22.8
[2]; heart, MDA-MB-468 tumor-bearing mice
  AUC0−t: 1.356 µM·h
[2]; kidney AUC0−t / plasma AUC0−t, tumor-bearing mice
  KP (tissue-to-plasma partition coefficient): 31.6
[2]; kidney, tumor-bearing mice
  KPadj: 42.4
[2]; kidney, MDA-MB-468 tumor-bearing mice
  AUC0−t: 2.396 µM·h
[2]; liver AUC0−t / plasma AUC0−t (apparent, not adjusted for CLint), tumor-bearing mice
  KP (tissue-to-plasma partition coefficient): 2.42
[2]; liver, tumor-bearing mice
  KPadj: 3.80
[2]; liver, MDA-MB-468 tumor-bearing mice
  AUC0−t: 0.176 µM·h
[2]; lung > spleen > liver > heart, tumor-bearing mice
  exposure relative to plasma exposure, highly perfused tissues: > 15 fold
[2]; lung AUC0−t / plasma AUC0−t, tumor-bearing mice
  KP (tissue-to-plasma partition coefficient): 35.3
[2]; lung, tumor-bearing mice
  KPadj: 64.9
[2]; lung, MDA-MB-468 tumor-bearing mice
  AUC0−t: 2.679 µM·h
[2]; muscle AUC0−t / plasma AUC0−t, tumor-bearing mice
  KP (tissue-to-plasma partition coefficient): 1.25
[2]; muscle, tumor-bearing mice
  KPadj: 1.51
[2]; muscle, MDA-MB-468 tumor-bearing mice
  AUC0−t: 0.0946 µM·h
[2]; pancreas AUC0−t / plasma AUC0−t, tumor-bearing mice
  KP (tissue-to-plasma partition coefficient): 2.11
[2]; pancreas, tumor-bearing mice
  KPadj: 2.93
[2]; pancreas, MDA-MB-468 tumor-bearing mice
  AUC0−t: 0.16 µM·h
[2]; plasma, MDA-MB-468 tumor-bearing mice, linear/log trapezoidal
  AUC0−t: 0.0754 µM·h
[2]; skin AUC0−t / plasma AUC0−t, tumor-bearing mice
  KP (tissue-to-plasma partition coefficient): 1.71
[2]; skin, tumor-bearing mice
  KPadj: 2.87
[2]; skin, MDA-MB-468 tumor-bearing mice
  AUC0−t: 0.13 µM·h
[2]; spleen AUC0−t / plasma AUC0−t, tumor-bearing mice
  KP (tissue-to-plasma partition coefficient): 27.1
[2]; spleen, tumor-bearing mice
  KPadj: 47.2
[2]; spleen, MDA-MB-468 tumor-bearing mice
  AUC0−t: 2.056 µM·h
[2]; tumor-bearing mice
  KP in the liver after accounting for CLint, without adjustments for the fractional cellular volume: 25.3
  exposure relative to plasma exposure, fat, pancreas, skin, bone, and muscle: about 2 fold
[2]; tumor-bearing mice, LLOQ 0.2 ng/g
  time up to which MMAE concentration in the liver was quantifiable: 6 h
[2]; tumor-bearing mice, LLOQ 0.2 ng/mL, LC-MS/MS
  Plasma concentration after 12 h: below the limit of quantification
